Experimental data reported in patent US20240409557A1, “5,6-FUSED AND 6,6-FUSED BICYCLIC ALCOHOLS AND ETHERS AND COMPOSITIONS FOR USE AS 15-PROSTAGLANDIN DEHYDROGENASE MODULATORS” (AMGEN INC., priority 2023, published 2024).

Experiments:
[1] = biological target: T1, human recombinant 15-PGDH (Homo sapiens, UniProt P15428); assay: Recombinant 15-PGDH enzymatic inhibition assay (PGDH-Lumi, NADH signal); type: biochemical; conditions: recombinant 15-PGDH; 15 min pre-incubation, 60 min reaction with PGE2 and NAD+, NADH signal
T1 sequence (P15428 1-266): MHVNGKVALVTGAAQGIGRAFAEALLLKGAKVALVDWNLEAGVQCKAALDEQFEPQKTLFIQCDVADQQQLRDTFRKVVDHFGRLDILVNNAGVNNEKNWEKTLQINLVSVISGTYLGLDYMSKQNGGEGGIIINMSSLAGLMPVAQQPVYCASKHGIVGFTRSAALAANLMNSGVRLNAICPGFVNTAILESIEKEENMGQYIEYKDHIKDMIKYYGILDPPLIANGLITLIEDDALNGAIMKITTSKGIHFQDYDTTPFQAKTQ
Method: These assays measured 15-PGDH enzymatic activity by quantifying the amount of NADH produced during a 60-minute reaction initiated by the addition of PGE2 and NAD+. Under the conditions of these experiments, the increase of NADH signal upon oxidation of PGE2 and reduction of NAD+ was linearly proportional to 15-PGDH enzymatic activity. The recombinant human, mouse, rat and dog 15-PGDH enzymatic assays were performed in a 25 μL volume of reaction buffer containing 50 mM Tris, pH 7.5, 0.01% Tween-20 and […] DTT in a 384-well microtiter plate. In concentration-response experiments with tested compounds, 22 concentrations from 2-fold serial dilutions in DMSO were pre-incubated with 15-PGDH for 15 minutes at room temperature. Then, PGE2 and β-NAD+ were added to initiate the 15-PGDH reaction. After 60 minutes at room temperature, the reaction was quenched and NADH signal was measured using a microtiter plate reader.
The following data (Table 27-1) provides the IC50 in μM of each compound for inhibiting enzymatic activity of the recombinant 15-PGDH in the assay described above.

15-PGDH in A549 cells = biological target: T2, 15-PGDH in A549 cells (Homo sapiens, UniProt P15428); assay: A549 cellular 15-PGDH assay (PGE2 accumulation, HTRF); type: cell-based; conditions: interleukin-stimulated, inhibitor 24 hrs, PGE2 by competitive HTRF, read-out: A549 Cell Assay IC50
T2 construct: endogenous in cells; host or cells: A549
T2 sequence (P15428 1-266): T1 sequence (P15428 1-266)
Text: This assay was used for the quantification of IL-13 induced Native Prostaglandin E2 (PGE2) produced by A549 cells (epithelial cells from lung carcinoma) in cell culture supernatants. […] PGE2 was detected in a competitive HTRF assay by using anti PGE2 antibody labeled with Europium cryptate, and PGE2 labeled with […]. The PGE2 present in the sample competes with the binding between the two HTRF detection solutions (reagents) and thereby prevents FRET from occurring. The specific signal is inversely proportional to the PGE2 concentration. From this binding data, IC50 values were calculated.

Cn1cc2cc(-c3ccc4nc([C@@H](O)C5CC(F)(F)C5)sc4n3)cnc2n1 (single isomer, unassigned) [Compound B72S]
IC50 [1]: 9.58 nM | IC50 (15-PGDH in A549 cells): 5.27 nM

CC(C)n1ncc2cc(-c3ccc4cc([C@H](O)C5CC(F)(F)C5)sc4n3)cnc21 (single isomer, unassigned) [Compound B65R]
IC50 [1]: 0.381 nM | IC50 (15-PGDH in A549 cells): 0.263 nM

Cn1cc2cc(-c3ccc4cc(C(O)C5CC5)sc4n3)cnc2n1 (centres unmarked) [Compound B16, cyclopropyl(6-(2-methyl-2H-pyrazolo[3,4-b]pyridin-5-yl)thieno[2,3-b]pyridin-2-yl)methanol]
IC50 [1]: 0.471 nM | IC50 (15-PGDH in A549 cells): 1.19 nM

Cn1cc2cc(-c3ccc4cc([C@H](O)C5CCC(F)(F)CC5)sc4n3)cnc2n1 (single isomer, unassigned) [Compound B31R]
IC50 [1]: 0.203 nM | IC50 (15-PGDH in A549 cells): 0.53 nM

Cn1cc2cc(-c3ccc4nc([C@]5(O)C[C@@](C)(C#N)C5)sc4n3)cnc2n1 (single isomer, unassigned) [Compound C91C, cis-3-hydroxy-1-methyl-3-(5-(2-methyl-2H-pyrazolo[3,4-b]pyridin-5-yl)[1,3]thiazolo[5,4-b]pyridin-2-yl)cyclobutanecarbonitrile]
IC50 [1]: 0.799 nM | IC50 (15-PGDH in A549 cells): 2.22 nM

Cn1ncc2cc(-c3ccc4cc([C@H](O)C5CCOCC5)sc4n3)cnc21 (single isomer, unassigned) [Compound B35R]
IC50 [1]: 1.09 nM | IC50 (15-PGDH in A549 cells): 18.2 nM

Cn1cc2cc(-c3ccc4cc([C@@H](O)C5CC5)sc4n3)cnc2n1 (single isomer, unassigned) [Compound B16S]
IC50 [1]: 27 nM | IC50 (15-PGDH in A549 cells): 9.58 nM

[2H]C(O)(c1cc2ccc(-c3cnc4nn(C)cc4c3)nc2s1)C1CCOCC1 (stereo not drawn) [Compound B66, (6-(2-methyl-2H-pyrazolo[3,4-b]pyridin-5-yl)thieno[2,3-b]pyridin-2-yl)(tetrahydro-2H-pyran-4-yl)methan-d-ol]
IC50 [1]: 0.948 nM | IC50 (15-PGDH in A549 cells): 0.829 nM

Cn1cc2cc(-c3ccc4cc([C@]5(O)C[C@](C)(C#N)C5)sc4n3)cnc2n1 [Compound C63T, trans-3-hydroxy-1-methyl-3-(6-(2-methyl-2H-pyrazolo[3,4-b]pyridin-5-yl)thieno[2,3-b]pyridin-2-yl)cyclobutanecarbonitrile]
IC50 [1]: 0.376 nM | IC50 (15-PGDH in A549 cells): 0.0863 nM

Cn1cc2cc(-c3ccc4cc(C5(O)CC6(CCCC6)C5)sc4n3)cnc2n1 [Compound C53, 2-(6-(2-methyl-2H-pyrazolo[3,4-b]pyridin-5-yl)thieno[2,3-b]pyridin-2-yl)spiro[3.4]octan-2-ol]
IC50 [1]: 0.363 nM | IC50 (15-PGDH in A549 cells): 0.0361 nM

Cc1c2cnc(-c3cnc4nn(C)cc4c3)nc2sc1[C@]1(O)C[C@@H](C(F)F)C1 [Compound C90C, cis-3-(difluoromethyl)-1-(5-methyl-2-(2-methyl-2H-pyrazolo[3,4-b]pyridin-5-yl)thieno[2,3-d]pyrimidin-6-yl)cyclobutanol]
IC50 [1]: 14.4 nM | IC50 (15-PGDH in A549 cells): 33 nM

Cn1cc2cc(-c3ccc4cc(C5(O)CCC5)sc4n3)cnc2n1 [Compound C21, 1-(6-(2-methyl-2H-pyrazolo[3,4-b]pyridin-5-yl)thieno[2,3-b]pyridin-2-yl)cyclobutanol]
IC50 [1]: 1.76 nM | IC50 (15-PGDH in A549 cells): 18.9 nM

Cn1cc2cc(-c3ccc4cc([C@@H](O)[C@@H]5CCC5(F)F)sc4n3)cnc2n1 (single isomer, unassigned) [Compound B94SS]
IC50 [1]: 1.23 nM | IC50 (15-PGDH in A549 cells): 3.63 nM

Cn1cc2cc(-c3ccc4cc([C@H](O)[C@@H]5CCC5(F)F)sc4n3)cnc2n1 (single isomer, unassigned) [Compound B94RS]
IC50 [1]: 0.325 nM | IC50 (15-PGDH in A549 cells): 0.657 nM

COCCC(O)c1cc2ccc(-c3cnc4nn(C)cc4c3)cc2s1 (centres unmarked) [Compound B59, 3-methoxy-1-(6-(2-methyl-2H-pyrazolo[3,4-b]pyridin-5-yl)-1-benzothiophen-2-yl)-1-propanol]
IC50 [1]: 8.41 nM

Cn1cc2cc(-c3ccc4cc([C@]5(O)CCC5(C)C)sc4n3)cnc2n1 (single isomer, unassigned) [Compound C65S]
IC50 [1]: 1990 nM

Cn1cc2cc(-c3cc(-c4ccnn4C)nc4sc(C(O)C5CCC5)cc34)cnc2n1 (centres unmarked) [Compound B3, cyclobutyl(4-(2-methyl-2H-pyrazolo[3,4-b]pyridin-5-yl)-6-(1-methyl-1H-pyrazol-5-yl)thieno[2,3-b]pyridin-2-yl)methanol]
IC50 [1]: 64.3 nM

Cn1cc2cc(-c3ccc4cc(C5(O)COC5)sc4n3)cnc2n1 [Compound C18, 3-(6-(2-methyl-2H-pyrazolo[3,4-b]pyridin-5-yl)thieno[2,3-b]pyridin-2-yl)-3-oxetanol]
IC50 [1]: 12.9 nM

Cn1cc2cc(-c3ccc4cc(C(C)(C)O)sc4n3)cnc2n1 [Compound C9, 2-(6-(2-methyl-2H-pyrazolo[3,4-b]pyridin-5-yl)thieno[2,3-b]pyridin-2-yl)-2-propanol]
IC50 [1]: 419 nM

COCCC(C)(O)c1cc2ccc(-c3cnc4nn(C)cc4c3)nc2s1 (centres unmarked) [Compound C1, 4-methoxy-2-(6-(2-methyl-2H-pyrazolo[3,4-b]pyridin-5-yl)thieno[2,3-b]pyridin-2-yl)-2-butanol]
IC50 [1]: 43.8 nM

Cc1n[nH]c2ccc(-c3ccc4cc([C@H](O)C5CCOCC5)sc4n3)cc12 (single isomer, unassigned) [Compound B40R]
IC50 [1]: 7.16 nM

COCC[C@H](O)c1cc2ccc(-c3cnc4nn(C)cc4c3)cc2s1 (single isomer, unassigned) [Compound B59S]
IC50 [1]: 1100 nM

COCC(O)(c1cc2ccc(-c3cnc4nn(C)cc4c3)nc2s1)C(F)(F)F (centres unmarked) [Compound C16, 1,1,1-trifluoro-3-methoxy-2-(6-(2-methyl-2H-pyrazolo[3,4-b]pyridin-5-yl)thieno[2,3-b]pyridin-2-yl)-2-propanol]
IC50 [1]: 235 nM

O[C@]1(c2cc3cnc(-c4cnc5nncn5c4)nc3s2)C[C@H](C(F)(F)F)C1 [Compound C129C, cis-1-(2-([1,2,4]triazolo[4,3-a]pyrimidin-6-yl)thieno[2,3-d]pyrimidin-6-yl)-3-(trifluoromethyl)cyclobutanol]
IC50 [1]: 3.5 nM

CC(C)n1cc2cc(-c3ccc4cc([C@@H](O)C5CC(F)(F)C5)sc4n3)ccc2n1 (single isomer, unassigned) [Compound B56S]
IC50 [1]: 18.3 nM

CN1CCC(C(O)c2cc3ccc(-c4cnc5nn(C)cc5c4)nc3s2)C1 (centres unmarked) [Compound B62, (6-(2-methyl-2H-pyrazolo[3,4-b]pyridin-5-yl)thieno[2,3-b]pyridin-2-yl)(1-methyl-3-pyrrolidinyl)methanol]
IC50 [1]: 20.7 nM

CCC(C)(O)c1cc2ccc(-c3cnc4nn(C)cc4c3)nc2s1 (centres unmarked) [Compound C10, 2-(6-(2-methyl-2H-pyrazolo[3,4-b]pyridin-5-yl)thieno[2,3-b]pyridin-2-yl)-2-butanol]
IC50 [1]: 195 nM

Cn1nccc1-c1cc(-c2ccnn2C)c2cc(C(O)C3CCC3)sc2n1 (centres unmarked) [Compound B1, (4,6-bis(1-methyl-1H-pyrazol-5-yl)thieno[2,3-b]pyridin-2-yl)(cyclobutyl)methanol]
IC50 [1]: 58.6 nM

Cn1cc2cc(-c3ccc4cc([C@@H](O)C5CCCC5)sc4c3)cnc2n1 (single isomer, unassigned) [Compound B58S]
IC50 [1]: 111 nM

CC(C)[C@H](O)c1cc2ccc(-c3cnc4nn(C)cc4c3)nc2s1 (single isomer, unassigned) [Compound B24S]
IC50 [1]: 15.9 nM
